Experimental data published in patent US20230416679A1, “METHODS AND COMPOSITIONS FOR IN-VITRO AUGMENTATION OF MILK PRODUCTION FROM MAMMARY EPITHELIAL CELLS” (Wilk Technologies International Ltd., priority 2021, published 2023).
Entries after “also recorded” stand apart in the source; their conditions may differ.

Key:
Format in all cases: cell-based
[1] = tested on: primary culture of bovine mammary epithelial cells; assay: Intracellular triglyceride content in cell lysates (lipid extraction, HPLC-ELSD); details: for intracellular triglyceride content: 24 h of treatment (FIG. 7)
Excerpt: For all the experiments, primary culture of bovine mammary epithelial cells were used. The cells were isolated from 3 lactating Holstein cows according to an established protocol (Cohen et al., 2015 supra). Study protocols were in compliance with the regulations of the Israeli Ministry of Health, under the supervision of the Department for Control of Animal Products, State of Israel Ministry of Agriculture Rural Development Veterinary Services and Animal Health. Certificate Nu: #80. After isolation, 60,000 cells were plated in a 35-mm plastic dish on glass cover slips for all florescence staining experiments. For production analysis, 150,000 cells were plated in a 60-mm plastic dish for lipids, protein, and lactose extraction. Oxygen consumption assay was performed by using Seahorse system (Agilent, USA); cells were plated in 24-well plate (20,000 cells/well) and incubated with DMEM/F12, with 0.15% (v/v) bovine serum albumin and insulin (1 μg/ml), hydrocortisone (0.5 μg/ml) and prolactin (1 μg/ml) for 48 h to induce lactogenic response. Then cells were treated with three different P. lentiscus extracts: ethyl acetate, hexane and chloroform, according to the protocol that was used before (Azaizeh et al., 2013). The extracts were diluted with DMEM/F12 medium supplemented with Dimethyl Sulfoxide (DMSO) in a final concentration of 0.1% for better dissolution of the extractions. […] The treatment was given in the presence of insulin (1 μg/ml), hydrocortisone (0.5 μg/ml) and prolactin (1 μg/ml). […] Otherwise, cells were fixed for florescence staining or plates taken to seahorse for oxygen consumption rate measurement.
After treatment, total lipids were extracted from harvested cells and from collected medium. The medium or the cells were diluted by 20 times Folch reagent (Chloroform-Methanol 2:1). After overnight incubation with cold extraction at 4° C., the upper phase was removed, and the lower phase was filtered through glass wool. Samples were then evaporated under a nitrogen stream at 65° C., diluted in 100 μl chloroform:methanol (97:3, v/v) and stored at −20° C. until injection for HPLC analysis. […] Quantification was performed against external standard curves and expressed as μg/per 10^6 live cells or as weight % out of the sum of phospholipids (μg) in the sample. Live cell number was determined with a hemocytometer after 5 min of trypan blue staining. […]
Cells were incubated with 360 uM oleic acid (O) with or without 1.2 mM beta hydroxybutyrate (BHBA, H). The concentration of triglyceride was measured in cell lysates.

[2] = tested on: primary culture of bovine mammary epithelial cells; assay: Milk protein (casein, whey) secretion to the medium (HPLC-UV)
Excerpt: For all the experiments, primary culture of bovine mammary epithelial cells were used. The cells were isolated from 3 lactating Holstein cows according to an established protocol (Cohen et al., 2015 supra). Study protocols were in compliance with the regulations of the Israeli Ministry of Health, under the supervision of the Department for Control of Animal Products, State of Israel Ministry of Agriculture Rural Development Veterinary Services and Animal Health. Certificate Nu: #80. After isolation, 60,000 cells were plated in a 35-mm plastic dish on glass cover slips for all florescence staining experiments. For production analysis, 150,000 cells were plated in a 60-mm plastic dish for lipids, protein, and lactose extraction. Oxygen consumption assay was performed by using Seahorse system (Agilent, USA); cells were plated in 24-well plate (20,000 cells/well) and incubated with DMEM/F12, with 0.15% (v/v) bovine serum albumin and insulin (1 μg/ml), hydrocortisone (0.5 μg/ml) and prolactin (1 μg/ml) for 48 h to induce lactogenic response. Then cells were treated with three different P. lentiscus extracts: ethyl acetate, hexane and chloroform, according to the protocol that was used before (Azaizeh et al., 2013). The extracts were diluted with DMEM/F12 medium supplemented with Dimethyl Sulfoxide (DMSO) in a final concentration of 0.1% for better dissolution of the extractions. Oleic acid was added to the treatment medium at a final concentration of […] to increase fat (triglycerol) synthesis to better enable the visualization of intracellular lipid droplets. The treatment was given in the presence of insulin (1 μg/ml), hydrocortisone (0.5 μg/ml) and prolactin (1 μg/ml). After 24 h of incubation, medium was collected for triglyceride and phospholipid quantification, and cells were harvested for cell counting, lipid, lactose or protein extraction. Otherwise, cells were fixed for florescence staining or plates taken to seahorse for oxygen consumption rate measurement. After treatment, 0.5 ml cultured medium was collected to HPLC equipped with UV detector. Protein content was determined in 220 nm wavelength by C-18 reverse phase column. Identification and quantification were determined by constructing a calibration curve of external standard of known protein concentrations which dissolved in a 50 mM phosphate buffer (PH=6.7). Identification for α casein, β casein and α lactalbumin were qualified as caseins (α and β casein) and whey (a lactalbumin) protein. Positive values indicate increased protein content whereas negative values indicate decreased protein content.

[3] = tested on: primary culture of bovine mammary epithelial cells; assay: Milk lactose secretion to the medium (HPLC, refractive index detector)
Excerpt: For all the experiments, primary culture of bovine mammary epithelial cells were used. The cells were isolated from 3 lactating Holstein cows according to an established protocol (Cohen et al., 2015 supra). Study protocols were in compliance with the regulations of the Israeli Ministry of Health, under the supervision of the Department for Control of Animal Products, State of Israel Ministry of Agriculture Rural Development Veterinary Services and Animal Health. Certificate Nu: #80. After isolation, 60,000 cells were plated in a 35-mm plastic dish on glass cover slips for all florescence staining experiments. For production analysis, 150,000 cells were plated in a 60-mm plastic dish for lipids, protein, and lactose extraction. […] After 24 h of incubation, medium was collected for triglyceride and phospholipid quantification, and cells were harvested for cell counting, lipid, lactose or protein extraction. […] After treatment, 0.5 ml medium was collected to be analyzed using HPLC equipped with a refractive index detector at 68° C. […] Identification and quantification were determined by establishing a calibration curve of external standard of a known lactose concentration dissolved in water. […]

[4] = tested on: primary culture of bovine mammary epithelial cells; assay: Intracellular lipid droplets fluorescence staining (Nile red / DAPI)
Excerpt: For all the experiments, primary culture of bovine mammary epithelial cells were used. The cells were isolated from 3 lactating Holstein cows according to an established protocol (Cohen et al., 2015 supra). Study protocols were in compliance with the regulations of the Israeli Ministry of Health, under the supervision of the Department for Control of Animal Products, State of Israel Ministry of Agriculture Rural Development Veterinary Services and Animal Health. Certificate Nu: #80. After isolation, 60,000 cells were plated in a 35-mm plastic dish on glass cover slips for all florescence staining experiments. […] After 24 h of incubation, medium was collected for triglyceride and phospholipid quantification, and cells were harvested for cell counting, lipid, lactose or protein extraction. […] Cover slips were then rinsed four times with PBS and mounted with fluorescence mounting medium (Dako, North America Inc., Carpinteria, CA). Slides were visualized with an Olympus BX40 fluorescence microscope equipped with an Olympus DP73 digital camera using CellSens Entry software (version 1.7, Olympus). Lipid droplet diameter was measured using ImageJ software (version 1.48, NIH, Bethesda, MD). […] The effect of oleic acid on accumulation of fat in primary culture of mammary epithelial cells was determined using Nile red staining (red). […]

[5] = tested on: primary culture of bovine mammary epithelial cells; assay: Triglyceride / fat secreted to the medium by mammary epithelial cells (Nile red staining, HPLC-ELSD)
Excerpt: For all the experiments, primary culture of bovine mammary epithelial cells were used. The cells were isolated from 3 lactating Holstein cows according to an established protocol (Cohen et al., 2015 supra). Study protocols were in compliance with the regulations of the Israeli Ministry of Health, under the supervision of the Department for Control of Animal Products, State of Israel Ministry of Agriculture Rural Development Veterinary Services and Animal Health. Certificate Nu: #80. After isolation, 60,000 cells were plated in a 35-mm plastic dish on glass cover slips for all florescence staining experiments. For production analysis, 150,000 cells were plated in a 60-mm plastic dish for lipids, protein, and lactose extraction. […] After 24 h of incubation, medium was collected for triglyceride and phospholipid quantification, and cells were harvested for cell counting, lipid, lactose or protein extraction. […]
After treatment, total lipids were extracted from harvested cells and from collected medium. […] Quantification was performed against external standard curves and expressed as μg/per 10^6 live cells or as weight % out of the sum of phospholipids (μg) in the sample. Live cell number was determined with a hemocytometer after 5 min of trypan blue staining. […]

With CC(O)CC(=O)O (stereo not drawn) [BHBA, β-hydroxybutirate] as the molecule, how does the “triglyceride content in the cells” value ([1]; 1.2 mM BHBA added to 360 uM oleic acid, 48 hours, cell lysates) read?
The value was ~90 ug/10^6 cells.

With O=C(O)c1cc(O)c(O)c(O)c1 [gallic acid] as the molecule, how does the “protein secretion compared to control” value ([2]; 2 ppm, P=0.98) read?
Its value is “did not change”.

And the lactose secretion [3]?
Its lactose secretion is “increases”.

And the “size of the intracellular lipid droplets” value ([4]; gallic acid added to MEC primary culture (FIG. 6))?
Its value is “increased”.

And the intracellular triglyceride content [1]?
The intracellular triglyceride content was “did not affect”.

With O=c1c(O)c(-c2cc(O)c(O)c(O)c2)oc2cc(O)cc(O)c12 [myricetin, Myricetin] as the molecule, how does the triglyceride secretion [5] read?
The triglyceride secretion was “can increase”.

And the “casein secretion, higher than control” value ([2]; 1 ppm, P<0.05, FIG. 7C)?
The value was 126%.

What about the “whey secretion, higher than control” value ([2]; 1 ppm, P=0.05, FIG. 7D) of the same molecule?
Its value is 124%.

What about the “increase of casein and whey secretion compared with control” value ([2]; between about 0.5 ppm and about 2.5 ppm, for example 1 ppm) of the same molecule?
Its value is 30%.

And the lactose secretion [3]?
Its lactose secretion is “can increase”.

What about the intracellular triglyceride content [1] of the same molecule?
The intracellular triglyceride content was “did not affect”.

Which results are given for CCCCCCCC/C=C\CCCCCCCC(=O)O [oleic acid]?
fat content (triglyceride) in medium collected from cells compared with control ([5]; 100 uM oleic acid in the presence of BSA, 24 h, Nile red): higher; also recorded: increases; oleic acid concentration at which toxic effect is evident ([4]; primary MEC, Nile red / Dapi staining (FIG. 2)): over 1 mM; increase of triglyceride content in the cells ([1]; 360 uM oleic acid, 48 hours, cell lysates): 4 fold
